The values that follow come from patent US20180214428A1, “3-(1H-INDOL-2-YL)-1H-PYRAZOLO[3,4-B]PYRIDINES AND THERAPEUTIC USES THEREOF” (Samumed, LLC, priority 2015, published 2018).

For one assay, the system named is SW480 colon cancer cells. Put plainly: Cell viability assay (CellTiter-Blue) in SW480 colon cancer cells. The format is cell-based, human. Particulars: Homo sapiens. The gist of the method: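 Resazurin reduction (Ex 560/Em 590 nm, ~3 h reagent incubation) served as the viability read-out after SW480 cells were treated for four days at 37 °C. Doses ran from 10 μM down to 0.0045 μM in eight 1:3 steps. Curves fitted non-linearly for EC50, else % inhibition at 10 μM reported.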
For orientation: The colour change of resazurin is a common sign of viable cells or microbes.

Assay [1] deals with primary human fibroblasts derived from IPF patients (LL29 cells). Put plainly: Inhibition of the fibrotic process: αSMA staining in TGF-β1 treated LL29 fibroblasts. The format is cell-based. Particulars: Homo sapiens, Fibroblast. The gist of the method:
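IPF patient-derived LL29 fibroblasts in 1% FBS medium got compound (11-point, 10 μM to 1.87 nM, 0.1% DMSO) plus TGF-β1 20 ng/mL, 4 days at 37° C. αSMA-positive live cells (SYTOX-excluded) were imaged, normalized to TGF-β1 controls and fitted for EC50; % inhibition at 10 μM given when EC50 >10 μM.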

As to `O=C(Nc1cncc(-c2cnc3[nH]nc(-c4cc5c(-c6cccc(F)c6)cccc5[nH]4)c3c2)c1)C1CCCCC1` [Compound 19, N-(5-(3-(4-(3-Fluorophenyl)-1H-indol-2-yl)-1H-pyrazolo[3,4-b]pyridin-5-yl)pyridin-3-yl)cyclohexanecarboxamide], the EC50 – broadly, the concentration that produces a half-maximal response – in the assay on SW480 colon cancer cells (96 h, four days, CellTiter-Blue) was > 10 µM; in assay [1] (96 h, TGF-β1 20 ng/mL, 4 days, % αSMA positive cells), > 10 µM. Besides, the inhibition (in general, how much of the control response was suppressed) at 10 µM in the assay with SW480 colon cancer cells (at 10 μM, given for EC50 of >10 μM, read-out: percent inhibition at 10 μM) was found to be 11.1%; in assay [1] (at 10 μM, given for EC50 of >10 μM, TGF-β1, αSMA, read-out: percent inhibition at 10 μM) it was 28.9%.
